The conditions of series [1]: for mass density: 101 kPa, Liquid, Vibrating tube method; for Triple point temperature: DTA.
Series [2] is described as follows: Molar enthalpy of transition or fusion. The settings on record: DSC.

Molecules are shown by their SMILES. Numbers after ± are expanded uncertainties.

The text below walks through data of the NIST ThermoML archive (doi:10.1016/j.tca.2014.05.028).

The mass density is mass per unit of volume. For the molecule `CCCC[N+]1(C)CCCC1.[Br-]` [1-butyl-1-methylpyrrolidinium bromide], the mass density stood at 1221.19 ± 2.9 kg/m3 in series [1] (298.15 K); 1217.27 ± 2.9 kg/m3 in series [1] (303.15 K); 1213.38 ± 2.8 kg/m3 in series [1] (308.15 K); 1209.51 ± 2.8 kg/m3 in series [1] (313.15 K); 1205.66 ± 2.8 kg/m3 in series [1] (318.15 K); 1201.84 ± 2.8 kg/m3 in series [1] (323.15 K). Also, the mass density in series [1] (328.15 K) is on record as 1198.05 ± 2.8 kg/m3; in series [1] (333.15 K), 1194.28 ± 2.8 kg/m3; in series [1] (338.15 K), 1190.53 ± 2.7 kg/m3; in series [1] (343.15 K), 1186.8 ± 2.7 kg/m3. The Triple point temperature in series [1] (Crystal) was determined as 487.67 ± 0.41 K. Also, the “Molar enthalpy of transition or fusion” value in series [2] (Crystal) is 3.14 ± 0.108 kcal/mol.
`CCCCC[N+]1(C)CCCC1.[Br-]` [1-methyl-1-pentylpyrrolidinium bromide]: the mass density in series [1] (298.15 K) is on record as 1188.96 ± 0.4 kg/m3; in series [1] (303.15 K), 1185.14 ± 0.4 kg/m3; in series [1] (308.15 K), 1181.35 ± 0.4 kg/m3; in series [1] (313.15 K), 1177.58 ± 0.4 kg/m3; in series [1] (318.15 K) it was 1173.84 ± 0.39 kg/m3; in series [1] (323.15 K) it was 1170.12 ± 0.39 kg/m3. Besides, the mass density is recorded as 1166.42 ± 0.39 kg/m3 in series [1] (328.15 K), 1162.75 ± 0.39 kg/m3 in series [1] (333.15 K), 1159.1 ± 0.38 kg/m3 in series [1] (338.15 K) and 1155.48 ± 0.38 kg/m3 in series [1] (343.15 K). The Triple point temperature in series [1] (Crystal 1) is 431.55 ± 0.41 K; in series [1] (Crystal 2), 326.85 ± 0.41 K. The “Molar enthalpy of transition or fusion” value came to 2.14 ± 0.0789 kcal/mol in series [2] (Crystal 1) and 0.466 ± 0.0382 kcal/mol in series [2] (Crystal 2).
For the molecule `CCC[N+]1(C)CCCC1.[Br-]` [1-methyl-1-propylpyrrolidinium bromide], the mass density in series [1] (298.15 K) is 1259.96 ± 1.4 kg/m3; in series [1] (303.15 K) it was 1255.92 ± 1.4 kg/m3; in series [1] (308.15 K), 1251.9 ± 1.4 kg/m3; in series [1] (313.15 K), 1247.91 ± 1.4 kg/m3; in series [1] (318.15 K), 1243.94 ± 1.4 kg/m3; in series [1] (323.15 K) it was 1240 ± 1.4 kg/m3. Moreover, the mass density is listed as 1236.08 ± 1.4 kg/m3 in series [1] (328.15 K), 1232.19 ± 1.4 kg/m3 in series [1] (333.15 K), 1228.32 ± 1.3 kg/m3 in series [1] (338.15 K) and 1224.48 ± 1.3 kg/m3 in series [1] (343.15 K). The Triple point temperature came to 476.68 ± 0.41 K in series [1] (Crystal 1) and 465.12 ± 0.41 K in series [1] (Crystal 2). Further, the results for the “Molar enthalpy of transition or fusion” value in series [2] (Crystal 1) and in series [2] (Crystal 2) were 2.59 ± 0.0908 kcal/mol and 0.698 ± 0.0478 kcal/mol, respectively.
